Measurements from ChEMBL document CHEMBL2331431, “Anti-inflammatory lanostanoids and lactone derivatives from Antrodia camphorata” (J Nat Prod, 2013).
Values after ≈ are worked out from the molar mass of the structure shown.

Tests used:
[1] = target: T1, Nitric oxide synthase, inducible (Mus musculus, UniProt P29477); assay: Inhibition of iNOS-mediated nitric oxide production in LPS-stimulated mouse RAW264.7 cells after 24 hrs by Griess reaction analysis; assay type: cell-based
T1 sequence (P29477 whole entry): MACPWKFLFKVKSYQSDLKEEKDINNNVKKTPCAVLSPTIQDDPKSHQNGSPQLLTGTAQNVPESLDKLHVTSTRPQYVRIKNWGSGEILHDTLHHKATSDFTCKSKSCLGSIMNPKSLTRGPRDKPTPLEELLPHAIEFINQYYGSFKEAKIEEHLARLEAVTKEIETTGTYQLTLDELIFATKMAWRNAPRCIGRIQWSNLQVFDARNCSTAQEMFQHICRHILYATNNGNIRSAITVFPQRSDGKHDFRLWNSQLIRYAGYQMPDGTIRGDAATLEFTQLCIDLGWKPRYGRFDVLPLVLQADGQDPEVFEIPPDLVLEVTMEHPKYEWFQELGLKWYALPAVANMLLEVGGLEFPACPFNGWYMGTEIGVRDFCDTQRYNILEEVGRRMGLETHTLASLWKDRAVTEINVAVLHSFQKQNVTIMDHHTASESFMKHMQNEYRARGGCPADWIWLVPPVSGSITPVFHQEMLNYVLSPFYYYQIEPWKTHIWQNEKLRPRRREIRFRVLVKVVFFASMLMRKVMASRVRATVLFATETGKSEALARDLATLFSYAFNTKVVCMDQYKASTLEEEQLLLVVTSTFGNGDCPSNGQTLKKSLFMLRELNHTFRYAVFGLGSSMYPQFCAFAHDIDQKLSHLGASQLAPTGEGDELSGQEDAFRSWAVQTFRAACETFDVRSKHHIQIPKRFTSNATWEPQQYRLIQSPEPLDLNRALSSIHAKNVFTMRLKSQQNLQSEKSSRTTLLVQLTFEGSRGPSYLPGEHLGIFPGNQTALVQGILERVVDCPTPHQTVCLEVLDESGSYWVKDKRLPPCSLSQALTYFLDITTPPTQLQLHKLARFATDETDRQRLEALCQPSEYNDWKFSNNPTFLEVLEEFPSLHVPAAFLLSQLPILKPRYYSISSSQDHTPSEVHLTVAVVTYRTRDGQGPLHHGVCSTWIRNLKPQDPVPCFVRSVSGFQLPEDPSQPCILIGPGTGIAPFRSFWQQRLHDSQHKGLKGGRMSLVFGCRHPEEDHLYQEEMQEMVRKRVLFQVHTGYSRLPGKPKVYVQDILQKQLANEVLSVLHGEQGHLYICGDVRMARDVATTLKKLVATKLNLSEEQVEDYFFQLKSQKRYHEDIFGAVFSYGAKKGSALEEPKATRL

[2] = test system: RAW264.7; assay: Cytotoxicity against LPS-stimulated mouse RAW264.7 cells at 20 ug/ml; assay type: cell-based
[3] = test system: HL-60; assay: Cytotoxicity against human HL60 cells assessed as inhibition of cell proliferation after 24 hrs; assay type: functional, cell-based; settings: HL-60, 24 h
[4] = test system: K562; assay: Cytotoxicity against human K562 cells assessed as inhibition of cell proliferation after 24 hrs; assay type: functional, cell-based; settings: K562, 24 h

Compound | IC50 [1] [µM] | Activity [2] | IC50 [3] [µg/mL] | IC50 [4] [µg/mL]
CCOC(=O)CC[C@@H](C)[C@H]1CC(=O)[C@@]2(C)C3=C(C(=O)C[C@]12C)[C@@]1(C)CCC(=O)C(C)(C)[C@@H]1CC3=O [ETHYL LUCIDENATE F] | > 20 | Non-toxic | – | –
CCOC(=O)CC[C@@H](C)[C@H]1CC(=O)[C@@]2(C)C3=C(C(=O)C[C@]12C)[C@@]1(C)CCC(=O)C(C)(C)[C@@H]1C[C@@H]3O [ETHYL LUCIDENATE A] | 10.8 | Non-toxic | 30 (≈ 61.6 µM) | 30 (≈ 61.6 µM)
CC(CC(=O)C[C@@H](C)C1=CC(=O)[C@@]2(C)C3=C(C(=O)C[C@]12C)[C@@]1(C)CCC(=O)C(C)(C)[C@@H]1C[C@@H]3O)C(=O)O (some centres not stated) | > 20 | Non-toxic | – | –
COc1cc(CCC(=O)O)oc(=O)c1 | > 20 | Non-toxic | – | –
COCC1(O)OC(=O)C=C1C (racemic) | > 20 | Non-toxic | – | –
COC(=O)C(C)CC(=O)C[C@@H](C)[C@H]1CC(=O)[C@@]2(C)C3=C(C(=O)C(=O)[C@]12C)[C@@]1(C)CCC(=O)C(C)(C)[C@@H]1CC3=O (some centres not stated) | 8.9 | Non-toxic | – | –

Compounds with a lower IC50 [1], results first:

IC50 [1] [µM] | Compound | Activity [2] | IC50 [3] [µg/mL] | IC50 [4] [µg/mL]
6.2 | CCOC(=O)C(C)CC(=O)C[C@@H](C)[C@H]1CC(=O)[C@@]2(C)C3=C(C(=O)C(=O)[C@]12C)[C@@]1(C)CCC(=O)C(C)(C)[C@@H]1CC3=O (some centres not stated) | Non-toxic | – | –
5 | C/C(=C\CC[C@@H](C)[C@H]1CC[C@@]2(C)C3=C([C@H](O)C[C@]12C)[C@@]1(C)CCC(=O)C(C)(C)[C@@H]1CC3=O)C(=O)O | Non-toxic | – | –
5 | C/C(=C\CC[C@@H](C)[C@H]1CC[C@@]2(C)C3=C(C(=O)C[C@]12C)[C@@]1(C)CCC(=O)C(C)(C)[C@@H]1CC3=O)C(=O)O | Non-toxic | – | –
4.9 | CC(=O)O[C@H]1C[C@H]([C@H](C)CC(=O)CC(C)C(=O)O)[C@@]2(C)CC(=O)C3=C(CC[C@H]4C(C)(C)C(=O)CC[C@]34C)[C@]12C (some centres not stated) | Non-toxic | – | –
